The results in this text go back to US20040209312A1, “Identifying and reducing the allergenicity of food proteins” (priority 2001, published 2004).

The assay concerns naïve human CD4+ T-cells and dendritic cells. It is filed as cell-based. The following applies: for T-cell epitope designation: Ber e 1 dataset, background 4.27%.

LEGMDESCRCEGLRM [peptide #12]: for the setting “5 μM peptide”, the T-cell epitope designation result is “minor epitopes”.
For the substance LRMMMMRMQQEEMQP [Peptide # 16], the T-cell epitope designation result (5 μM peptide) is “does not reach any epitope designation”.
Still for that read-out and setting: as for MQPRGEQMRRMMRLA [peptide #20], the entry is “minor epitopes”.
As to RQQMLSHCRMYMRQQ [peptide #4], the “percentage of the donor pool that responded with a baseline-normalized response of 2.95 or better (percent responders)” value (Ber e 1 15-mer peptide set, 5 μM peptide, human donors) is given as 18.48%. In addition, the T-cell epitope designation entry (5 μM peptide) is listed as “reached the three-fold cut-off”.
In the case of “tetanus toxoid: positive control antigen in the T-cell proliferation assay [reference compound]”, the “positive control response (T-cell proliferation)” value (positive control antigen in all tests reported) is listed as “robust positive control responses”.
